Converted amounts (≈) assume the structure as drawn.
Tests used:
neutrophil elastase [1] = biological target: T1, neutrophil elastase (Homo sapiens (Human), UniProt P08246); assay: Human Neutrophil Elastase Assay; assay type: biochemical; settings: substrate MeOSuc-Ala-Ala-Pro-Val-AMC
Target sequence in this assay (P08246 30-247): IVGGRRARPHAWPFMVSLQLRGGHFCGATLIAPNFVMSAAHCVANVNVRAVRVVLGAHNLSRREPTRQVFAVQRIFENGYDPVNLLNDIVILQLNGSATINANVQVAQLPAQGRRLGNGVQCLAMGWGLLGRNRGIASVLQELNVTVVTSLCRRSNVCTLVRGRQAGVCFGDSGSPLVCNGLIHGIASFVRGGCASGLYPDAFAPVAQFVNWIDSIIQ

neutrophil elastase [2] = biological target: T1, neutrophil elastase; assay: Neutrophil elastase inhibitory activity in human plasma; assay type: biochemical; settings: zymosan-stimulated human plasma, substrate MeOSuc-Ala-Ala-Pro-Val-AMC
Experimental: Assay for the Determination of Neutrophil Elastase Inhibitory Activity in Human Plasma
Citrated blood from human healthy donors is mixed with zymosan suspension and incubated at room temperature. This leads to the stimulation of neutrophils and the release of neutrophil elastase into the plasma. The stimulated blood is centrifuged to generate the neutrophil elastase enriched plasma.
Preparation of Zymosan Working Solution:
• A single 45 ml blood sample is taken into a 50 ml tube containing citrate (3.13%, 5 mL) and the tube is gently inverted 4 times. • Immediately after blood sampling, zymosan working solution (5 mL) is added. • After the addition of zymosan working solution, the tubes are capped, mixed gently and incubated at 22° C. for 15 min on a shaker at 20 rpm. • Make 10 ml aliquots after the incubation time. • Centrifuge the 15 ml tubes at 800 g for 15 min at 4° C. in a Jouan centrifuge. • Harvest the plasma and make 1-5 ml aliquots. • Store the plasma at −80° C.
Various concentrations of the neutrophil elastase inhibitor are incubated with plasma. Subsequently, the enzyme activity is measured using the fluorogenic substrate MeOSuc-Ala-Ala-Pro-Val-AMC (Bachem Cat. No. I-1270, substrate concentration: 250 μM, pH 7.5, 25 mM TRIS buffer, 250 mM NaCl) in analogous fashion as described for the human neutrophil assay. A dose response curve is generated to calculate the EC50 of the inhibitor. The analysis of the data is performed by the calculation of the percentage of fluorescence in the presence of the test compound compared to the fluorescence of the vehicle control after subtracting the background fluorescence: An inhibitor of the neutrophil elastase enzyme will give values between 100% control (no inhibition) and 0% control (complete inhibition).
Target sequence in this assay (P08246 30-267): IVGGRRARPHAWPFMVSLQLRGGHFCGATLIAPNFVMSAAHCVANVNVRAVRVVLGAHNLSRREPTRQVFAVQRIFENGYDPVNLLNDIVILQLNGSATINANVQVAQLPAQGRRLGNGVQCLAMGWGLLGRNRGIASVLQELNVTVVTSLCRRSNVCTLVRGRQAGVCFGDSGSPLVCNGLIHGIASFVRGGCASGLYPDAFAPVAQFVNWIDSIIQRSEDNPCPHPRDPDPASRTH

[3] = Drug transport across human Caco-2 cells; assay type: in vitro ADME; settings: human, Caco-2, pH 7.2, 37° C.
From the text: Assay for Determination of Drug Transport Across Human Caco-2 Cells
The assay provides information on the potential of a compound to pass the cell membrane, on the extent of oral absorption as well as on whether the compound is actively transported by uptake and/or efflux transporters. For the measurement of permeability across polarized, confluent human cancer colon carcinoma cells 2 (Caco-2) cell monolayers grown on permeable filter supports are used as the in vitro absorption model.
Apparent permeability coefficients (PE) of the compounds across the Caco-2 monolayers are measured (pH 7.2, 37° C.) in apical-to-basal (AB) (absorptive) and basal-to-apical (BA) (secretory) transport direction. AB permeability (PEAB) represents drug absorption from the intestine into the blood and BA permeability (PEBA) drug secretion from the blood back into the intestine via both passive permeability as well as active transport mechanisms mediated by efflux and uptake transporters that are expressed on the Caco-2 cells. The compounds are assigned to permeability/absorption classes by comparison of the AB permeabilities with the AB permeabilities of reference compounds with known in vitro permeability and oral absorption in the human. Identical or similar permeabilities in both transport directions indicate passive permeation, vectorial permeability points to additional active transport mechanisms. […] Active transport is concentration-dependently saturable.
Caco-2 cells (1-2*10^5 cells/cm^2 area) are seeded on filter inserts (Costar transwell polycarbonate or PET filters, 0.4 μm pore size) and cultured (DMEM) for 10 to 25 days. Compounds are dissolved in appropriate solvent (like DMSO, 1-20 mM stock solutions). Stock solutions are diluted with HTP-4 buffer (128.13 mM NaCl, 5.36 mM KCl, 1 mM MgSO4, 1.8 mM CaCl2, 4.17 mM NaHCO3, 1.19 mM Na2HPO4x7H2O, 0.41 mM NaH2PO4xH2O, 15 mM HEPES, 20 mM glucose, pH 7.2) to prepare the transport solutions (typically 10 μM compound, final DMSO<=0.5%). The transport solution (TL) is applied to the apical or basolateral donor side for measuring A-B or B-A permeability (3 filter replicates), respectively. The receiver side contains HTP-4 buffer supplemented with 2% BSA. Samples are collected at the start and end of experiment from the donor and at various time intervals for up to 2 hours also from the receiver side for concentration measurement by LC-MS/MS or scintillation counting. Sampled receiver volumes are replaced with fresh receiver solution.
The apparent permeability coefficients (PEAB and PEBA) of selected compounds in the Caco-2 drug transport assay described above are listed in Table 5.

[4] = Metabolic stability with human liver microsomes; assay type: in vitro ADME; settings: pH 7.6; pooled human liver microsomes, 1 μM compound, 37° C.; read-out: t1/2 INVITRO
Experimental: Assay for the Determination of Metabolic Stability with Human Liver Microsomes
The metabolic degradation of the test compound is assayed at 37° C. with pooled human liver microsomes. The final incubation volume of 100 μl per time point contains TRIS buffer pH 7.6 (0.1 M), magnesium chloride (5 mM), microsomal protein (1 mg/ml) and the test compound at a final concentration of 1 μM. Following a short preincubation period at 37° C., the reactions are initiated by addition of beta-nicotinamide adenine dinucleotide phosphate, reduced form (NADPH, 1 mM) and terminated by transferring an aliquot into acetonitrile after different time points. Additionally, the NADPH-independent degradation is monitored in incubations without NADPH, terminated at the last time point. The [%] remaining test compound after NADPH independent incubation is reflected by the parameter c(control) (metabolic stability). The quenched incubations are pelleted by centrifugation (10,000 g, 5 min) An aliquot of the supernatant is assayed by LC-MS/MS for the amount of parent compound.
The half-life (t1/2 INVITRO) is determined by the slope of the semilogarithmic plot of the concentration-time profile. The intrinsic clearance (CL_[…]) is calculated by considering the amount of protein in the incubation: CL_[…][μl/min/mg protein]=(ln 2/(half-life[min]*protein content[mg/ml]))*1,000.
The half-life (t1/2 INVITRO) values of selected compounds in the metabolic stability assay human liver microsomes described above are listed in Table 3.

Aqueous solubility = assay type: physicochemical; settings: McIlvaine buffer with 2.5% DMSO, aqueous buffer, kinetic from dmso stock, McIlvaine buffer pH 6.8, 2.5% DMSO
Experimental: Assay for Determination of Aqueous Solubility
Starting from a 10 mM DMSO stock solution, aliquots are diluted with acetonitrile/water (1/1) and McIlvaine buffer pH 6.8, respectively. After 24 h of shaking, the solutions or suspensions are filtered and analyzed by LC-UV. The amount dissolved in buffer is compared to the amount dissolved in the acetonitrile/water (1/1) solution. Solubility is measured from 0.001 to 0.125 mg/ml at a DMSO concentration of 2.5%. If more than 90% of the compound is dissolved in buffer, the value is marked with “>”.

Row | Compound | IC50 (neutrophil elastase [1]) [nM] | further results
1 | CC(=O)C1=C(C)N(c2cccc(C(F)(F)F)c2)C(=O)N(C)C1c1ccc(C#N)cc1-c1ncc(C)o1 (stereo not shown) [Example 7, 4-[5-Acetyl-3,6-dimethyl-2-oxo-1-(3-trifluoromethyl-phenyl)-1,2,3,4-tetrahydro-pyrimidin-4-yl]-3-(5-methyl-oxazol-2-yl)-benzonitrile] | < 1 | –
2 | CC(=O)C1=C(C)N(c2cccc(C(F)(F)F)c2)C(=O)N(C)C1c1ccc(C#N)cc1-c1nnc(C)o1 (stereo not shown) [Example 8, 4-[5-Acetyl-3,6-dimethyl-2-oxo-1-(3-trifluoromethyl-phenyl)-1,2,3,4-tetrahydro-pyrimidin-4-yl]-3-(5-methyl-[1,3,4]oxadiazol-2-yl)-benzonitrile] | < 1 | EC50 (neutrophil elastase [2]): 6 nM; Papp A→B at 10 μM ([3]; apical-to-basal, read-out: PEAB): 77 ×10⁻⁶ cm/s; Papp B→A at 10 μM ([3]; basal-to-apical, read-out: PEBA): 63 ×10⁻⁶ cm/s; half-life at 1 μM [4]: > 2.17 h; solubility at 24 h (Aqueous solubility): 30 µg/mL (≈ 60.5 µM)
3 | CC(=O)C1=C(C)N(c2cccc(C(F)(F)F)c2)C(=O)N(C)C1c1ccc(C#N)cc1-c1nc(C)no1 (stereo not shown) [Example 9, 4-[5-Acetyl-3,6-dimethyl-2-oxo-1-(3-trifluoromethyl-phenyl)-1,2,3,4-tetrahydro-pyrimidin-4-yl]-3-(5-methyl-[1,3,4]oxadiazol-2-yl)-] | < 1 | –
4 | CC(=O)C1=C(C)N(c2cccc(C(F)(F)F)c2)C(=O)N(C)C1c1ccc(C#N)cc1C1=CCNCC1 (stereo not shown) [Example 10, 4-[5-Acetyl-3,6-dimethyl-2-oxo-1-(3-trifluoromethyl-phenyl)-1,2,3,4-tetrahydro-pyrimidin-4-yl]-3-(1,2,3,6-tetrahydro-pyridin-4-yl)-benzonitrile] | < 1 | –
5 | CC(=O)C1=C(C)N(c2cccc(C(F)(F)F)c2)C(=O)NC1c1ccc(C#N)cc1-c1ccoc1 (stereo not shown) [Example 11, 4-[5-Acetyl-6-methyl-2-oxo-1-(3-trifluoromethyl-phenyl)-1,2,3,4-tetrahydro-pyrimidin-4-yl]-3-furan-3-yl-benzonitrile] | 4.6 | –
6 | CC(=O)C1=C(C)N(c2cccc(C(F)(F)F)c2)C(=O)N(C)[C@@H]1c1ccc(C#N)cc1C(N)=O [Example 13, 2-[(R)-5-Acetyl-3,6-dimethyl-2-oxo-1-(3-trifluoromethyl-phenyl)-1,2,3,4-tetrahydro-pyrimidin-4-yl]-5-cyano-benzamide] | < 1 | –
7 | CCOC(=O)C1=C(C)N(c2cccc(C(F)(F)F)c2)C(=O)N(C)C1c1ccc(C#N)cc1-c1ccco1 (stereo not shown) [Example 14, 4-(4-Cyano-2-furan-2-yl-phenyl)-3,6-dimethyl-2-oxo-1-(3-trifluoromethyl-phenyl)-1,2,3,4-tetrahydro-pyrimidine-5-carboxylic acid ethyl ester] | 3.7 | –
8 | CCOC(=O)C1=C(C)N(c2cccc(C(F)(F)F)c2)C(=O)N(C)C1c1ccc(C#N)cc1C1=CCNCC1 (stereo not shown) [Example 15, 4-[4-Cyano-2-(1,2,3,6-tetrahydro-pyridin-4-yl)-phenyl]-3,6-dimethyl-2-oxo-1-(3-trifluoromethyl-phenyl)-1,2,3,4-tetrahydro-pyrimidine-5-carboxylic acid ethyl ester] | 3 | –
9 | COC(=O)c1cc(C#N)ccc1C1C(C(C)=O)=C(C)N(c2cccc(C(F)(F)F)c2)C(=O)N1C (stereo not shown) [Intermediate 5, 2-[5-Acetyl-3,6-dimethyl-2-oxo-1-(3-trifluoromethyl-phenyl)-1,2,3,4-tetrahydro-pyrimidin-4-yl]-5-cyano-benzoic acid methyl ester] | < 1 | –
10 | CC(=O)C1=C(C)N(c2cccc(C(F)(F)F)c2)C(=O)N(C)C1c1ccc(C#N)cc1C(=O)O (stereo not shown) [Intermediate 6, 2-[5-Acetyl-3,6-dimethyl-2-oxo-1-(3-trifluoromethyl-phenyl)-1,2,3,4-tetrahydro-pyrimidin-4-yl]-5-cyano-benzoic acid] | 3.93 | –

More lines, main results first:

Row | IC50 (neutrophil elastase [1]) [nM] | Compound | further results
11 | < 1 | CC(=O)C1=C(C)N(c2cccc(C(F)(F)F)c2)C(=O)N(C)[C@@H]1c1ccc(C#N)cc1C(=O)NC1CC1 [Example 13.2] | –
12 | < 1 | CC(=O)C1=C(C)N(c2cccc(C(F)(F)F)c2)C(=O)N(C)[C@@H]1c1ccc(C#N)cc1C(=O)NCC#N [Example 13.3] | –
13 | 3.2 | CCOC(=O)C1=C(C)N(c2cccc(C(F)(F)F)c2)C(=O)N(C)C1c1ccc(C#N)cc1-c1ccoc1 (stereo not shown) [Example 14.1] | –
14 | 1.9 | CCOC(=O)C1=C(C)N(c2cccc(C(F)(F)F)c2)C(=O)N(C)C1c1ccc(C#N)cc1-c1cn[nH]c1 (stereo not shown) [Example 14.2] | –
15 | < 1 | CCOC(=O)C1=C(C)N(c2cccc(C(F)(F)F)c2)C(=O)N(C)C1c1ccc(C#N)cc1-c1cnoc1 (stereo not shown) [Example 14.3] | –
16 | 1.9 | CCOC(=O)C1=C(C)N(c2cccc(C(F)(F)F)c2)C(=O)N(C)C1c1ccc(C#N)cc1C1=COCC1 (stereo not shown) [Example 14.4] | –
17 | < 1 | CCOC(=O)C1=C(C)N(c2cccc(C(F)(F)F)c2)C(=O)N(C)C1c1ccc(C#N)cc1-c1cnn(C)c1 (stereo not shown) [Example 14.5] | –
18 | 3.1 | CCOC(=O)C1=C(C)N(c2cccc(C(F)(F)F)c2)C(=O)N(C)C1c1ccc(C#N)cc1-c1ccnn1C (stereo not shown) [Example 14.6] | –
19 | 2.4 | CCOC(=O)C1=C(C)N(c2cccc(C(F)(F)F)c2)C(=O)N(C)C1c1ccc(C#N)cc1-c1ccn(C)n1 (stereo not shown) [Example 14.7] | –
20 | < 1 | CCOC(=O)C1=C(C)N(c2cccc(C(F)(F)F)c2)C(=O)N(C)C1c1ccc(C#N)cc1-c1ccn(C)c(=O)c1 (stereo not shown) [Example 14.9] | –
